# Laboratory results as given in US20070213297A1, “Arrays with cleavable linkers” (priority 2004, published 2007).
# Marks after values point to notes of the source that are not given here.
# Assays:
# [1] = tested on: 2G12 antibody; experiment: Carbohydrate microarray analysis of oligomannose-2G12 binding (microtiter plate); set-up: species or system human
# Procedure: Carbohydrate microarray analysis. Ninety-six well NHS-coated microtiter plates (NoAb Biodiscoveries) were treated with 200 μL of a 1 mM methanolic solution of the amino-functionalized disulfide and alkyne containing linker (scheme V) containing 5% diisopropylethylamine (DIEA) and incubated overnight at 4° C. The microtiter plate was then washed with 2×200 μL methanol and 2×200 μL water. Next, 200 μL solutions of azido-functionalized oligomannose derivatives 21-25 at varying concentrations from 0 to 500 μM in 5% DIEA/methanol were introduced. A sprinkle of copper (I) iodide was added and the contents were allowed to react overnight at 4° C. The next day, the contents were removed and the plates were washed with 2×200 μL methanol and 2×200 μL water. The plates were then blocked with 0.1% Tween20 solution in HEPES buffer pH 7.5 at 4° C. for 1 hour and then washed with 3×200 μL HEPES buffer. […] Detection of the FITC-tagged secondary antibody was performed in 200 μL water using a fluorescence plate reader. […]
# Carbohydrate Microarray Analysis. […] Kd values for the interaction of 2G12 with oligomannoses 4, 5, 7, 8, 9 (Table 9) were determined using a microtiter-based assay with detection via a fluorescent secondary antibody (see Bryan et al. (2004) J. Am. Chem. Soc. 126, 8640-41).
# [2] = tested on: 2G12 anti-HIV antibody; experiment: 2G12 binding to glycan array printed on glass slide; set-up: species or system human; conditions: for 2G12 binding on glycan array (in words): initial experiments; for Rel. spec. (relative binding activity of 2G12): glass slide glycan array, 2G12 pre-complexed with anti-IgG-FITC
# Procedure: Construction of a glycan array printed on a glass slide: The library of carbohydrate structures was obtained through chemical and chemo-enzymatic synthesis as described above, as well as natural sources. This compound library contained a N-hydroxy succinimide (NHS)-reactive primary amino group, which was printed on a commercial NHS-activated glass surface (Accelr8 Technology Corporation, Denver, Colo.) using a microarray gene printer (TSRI).
# Each glycan type was printed (≈0.5 nL/spot) at various concentrations (10-100 μM) and each concentration in a replicate of six. Slides were further incubated with ethanolamine buffer to deactivate remaining NHS functional groups.
# The 2G12 antibody was pre-complexed (for 10 min) with secondary human anti-IgG-FITC (2:1, 20 μg/mL) prior to application to the glycan array. After incubation with the 2G12 antibodies, the array washed by dipping the slide in buffer and water.
# [3] = target: T1, chicken ST6GalNAc-I (Gallus gallus, UniProt Q92183); experiment: chST6GalNAc-I activity on small acceptor molecules; type: biochemical; conditions: α-D-galacto derivatives as acceptors
# T1 construct: made in house; host or cells: insect cells
# T1 sequence (Q92183 whole entry): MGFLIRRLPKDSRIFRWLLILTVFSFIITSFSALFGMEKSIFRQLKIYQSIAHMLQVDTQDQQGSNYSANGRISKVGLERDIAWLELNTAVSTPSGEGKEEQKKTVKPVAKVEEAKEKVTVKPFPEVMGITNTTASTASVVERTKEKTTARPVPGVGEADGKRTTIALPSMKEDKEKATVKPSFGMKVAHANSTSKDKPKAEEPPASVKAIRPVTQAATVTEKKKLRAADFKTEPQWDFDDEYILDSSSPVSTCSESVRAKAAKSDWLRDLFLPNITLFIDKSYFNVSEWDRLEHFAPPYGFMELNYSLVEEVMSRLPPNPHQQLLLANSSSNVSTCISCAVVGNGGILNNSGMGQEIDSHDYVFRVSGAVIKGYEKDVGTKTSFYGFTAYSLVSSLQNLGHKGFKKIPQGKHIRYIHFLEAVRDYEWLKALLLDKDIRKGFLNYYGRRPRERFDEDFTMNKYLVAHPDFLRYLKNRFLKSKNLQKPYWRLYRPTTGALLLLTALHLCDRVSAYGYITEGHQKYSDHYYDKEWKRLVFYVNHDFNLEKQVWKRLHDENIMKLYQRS
# Text: The inventors have previously reported the cloning, expression, and characterization of chicken ST6GalNAc-I and its use in preparative synthesis of the O-linked sialoside antigens, STn-, α(2-6)SiaT-, α(2-3)SiaT- and Di-SiaT-antigen. Blixt, O.; Allin, K.; Pereira, L.; Datta, A. and Paulson, J. C., J. Am. Chem. Soc. 2002, 124, 5739-5746. Briefly, the recombinant enzyme was expressed in insect cells and purified by CDP-sepharose affinity chromatography to generate approximately 10 U/L of cell culture.
# [4] = tested on: β3GlcNAcT; experiment: β3GlcNAcT acceptor specificity; type: biochemical, N. meningitidis; conditions: as acceptor substrate; lactose (4) = 100%
# Procedure: Both enzymes, β4GalT-GalE and β3GlcNAcT, were over expressed in E. coli AD202 in a large-scale fermentor (100 L). Bacteria were cultured in 2YT medium and induced with iso-propyl-thiogalactopyranoside (IPTG) to ultimately produce 8-10 g of bacterial cell paste/L cell media. The enzymes were then released from the cells by a microfluidizer and were solubilized in Tris buffer (25 mM, pH 7.5) containing manganese chloride (10 mM) and Triton X (0.25%) to reach enzymatic activities of about 50 U/L and 115 U/L of cell culture β4GalT-GalE and β3GlcNAcT, respectively.
# The structures of these disaccharides are provided below. [drawing 17]
# Adding the hydrophobic para-nitrophenyl ring as an aglycon to the reducing end of the acceptors enhanced the activity of the enzyme up to 10 fold (compare 4 with 5 and 6 with 7). The increase in the enzyme activity by adding a hydrophobic aglycon to the acceptor sugar, though to the lesser extent, has also been shown for β4GalT (compare 12 with 13, 14). The relaxed substrate specificity of these enzymes makes them very useful for preparative synthesis of various carbohydrate structures, including poly-N-acetyllactosamines.
# [5] = tested on: 2G12 antibody; experiment: 2G12 binding, cleavable linker glycan array in microtiter plates; set-up: species or system human
# Procedure: Cleavable Linker Glycan Array in Microtiter Plates: Further experiments were performed using glycans immobilized within microtiter wells with the cleavable triazole linkers described in Example 7 as shown in FIG. 11.
# 2G12 Binding: After washing with QH2O, wells were blocked with 10 mM HEPES buffer, pH 7.5/150 mM NaCl buffer (200 μL) containing 0.1% Tween-20 over 1 h at 4° C. The buffer was then removed and 2G12 (17 μg/mL PBS buffer; 200 μL) was incubated in the well over 1 h at 4° C. Wells were then washed with PBS buffer (3×; 200 μL) and fluorescein-conjugated Goat Anti-Human IgG antibody (14 μg/mL PBS buffer; 200 μL) was incubated in the well over 1 h in the dark at 4° C. Wells were then washed with PBS buffer (3×; 200 μL) and fluorescence was measured with an excitation wavelength of 485 nm and emission wavelength of 535 nm.
# Further studies were performed using a cleavable linker array to clarify the types of mannose-containing glycans bound by the 2G12 anti-HIV antibodies. […] The results of a binding study using increasing amounts of labeled Manα1,2Manα1,3Manα1,2 Manα1,6Man glycan with a constant amount of 2G12 antibody are shown in FIG. 16.
molecule,measurement,setting,value
NCCCCCO[C@H]1O[C@H](CO[C@H]2O[C@H](CO)[C@@H](O)[C@H](O)[C@@H]2O[C@H]2O[C@H](CO)[C@@H](O)[C@H](O)[C@@H]2O)[C@@H](O)[C@H](O[C@H]2O[C@H](CO)[C@@H](O)[C@H](O)[C@@H]2O[C@H]2O[C@H](CO)[C@@H](O)[C@H](O)[C@@H]2O)[C@@H]1O [Oligomannose 5],2G12 affinity ranking (in words),[1],greatest affinity
Man-9#aa Man9-aminoacid [Glycan 145],2G12 binding on glycan array (in words),[2],smaller level of binding
O=[N+]([O-])c1ccc(O[C@@H]2OC(CO)[C@@H](O[C@@H]3OC(CO)[C@H](O)[C@H](O)C3O)[C@H](O)C2O)cc1 (stereo partly shown) [Compound 5],"chST6GalNAc-I activity, nmol/mg x min^−1",[3],1.30 nmol/mg x min^−1
same,Rel. spec. (relative binding activity of 2G12),[2],− (- = <1000)
CC(=O)N[C@H]1C(O)O[C@H](CO)[C@@H](O[C@@H]2O[C@H](CO)[C@H](O)[C@H](O)[C@H]2O)[C@@H]1O (stereo partly shown) [Compound 6],Relative enzyme activity (%) β(1-3)GlcNAcT-activity,[4],7%
same,"chST6GalNAc-I activity, nmol/mg x min^−1",[3],12.50* nmol/mg x min^−1
same,Rel. spec. (relative binding activity of 2G12),[2],− (- = <1000)
Man-8#aa Man8-aminoacid [Glycan 144],2G12 binding on glycan array (in words),[2],Binding was observed
"Manα1,2 Manα1,2 Manα1,3Man",2G12 epitope/affinity (in words),[5],optimal epitope(s) with micromolar affinity to 2G12
same,Kd,[5],100 nM
OCC1O[C@@H](O)C(O)[C@@H](O)[C@@H]1O[C@@H]1OC(CO)[C@H](O)[C@H](O)C1O (stereo partly shown) [Compound 4],Relative enzyme activity (%) β(1-3)GlcNAcT-activity,[4],100%
same,"chST6GalNAc-I activity, nmol/mg x min^−1",[3],2.90 nmol/mg x min^−1
same,Rel. spec. (relative binding activity of 2G12),[2],− (- = <1000)
"Manα1,2Manα1,3Manα1,2 Manα1,6Man",2G12 epitope/affinity (in words),[5],optimal epitope(s) with micromolar affinity to 2G12
"CC(=O)N[C@@H]1[C@@H](O)[C@@H](O)[C@@H](CO)O[C@@H]1O [D-GaINAc, reference compound]","chST6GalNAc-I activity, cpm",[3],0 cpm
same,"chST6GalNAc-I activity, nmol/mg x min^−1",[3],0.00 nmol/mg x min^−1
